Data: patent US7744867B2, “PTPase inhibitors and method of using same” (The Cleveland Clinic Foundation, priority 2001, dated 2010)

Assays:
GST/SHP-1 fusion protein = molecular target: T1, GST/SHP-1 fusion protein (Mus musculus, UniProt P29351); assay: In vitro PTPase assay, dephosphorylation of a synthetic phosphotyrosine peptide; assay type: biochemical; conditions: Sb concentration of 10 μg/ml
T1 construct: made in house
Procedure: In vitro PTPase activities were measured using the commercial protein tyrosine phosphatase assay kit (UBI) following established procedure. This assay measures the in vitro dephosphorylation of a synthetic phosphotyrosine peptide (R-R-L-I-E-D-A-E-pY-A-A-R-G). Briefly, 0.01 μg of GST/PTPase fusion protein was incubated in 50 μl of Tris buffer (10 mM Tris, […]) at 22° C. for 10 minutes, followed by addition of 0.2 mM of the phosphotyrosine peptide and incubation at 22° C. for 18 hours. 100 μl of Malachite Green solution was added and incubated for 5 minutes, and the absorbance at 660 nm was measured after 5 minutes.

[1] = molecular target: T2, MKP1 (GST fusion protein) (Homo sapiens, UniProt P28562); assay: as above; assay type: biochemical
T2 construct: made in house; host or cells: E. coli DH5a
Procedure: In vitro PTPase activities were measured using the commercial protein tyrosine phosphatase assay kit (UBI) following established procedure. This assay measures the in vitro dephosphorylation of a synthetic phosphotyrosine peptide (R-R-L-I-E-D-A-E-pY-A-A-R-G). Briefly, 0.01 μg of GST/PTPase fusion protein was incubated in 50 μl of Tris buffer (10 mM Tris, pH 7.4) containing different concentrations of inhibitors or chemicals (0 to 1,000 μg/ml) at 22° C. for 10 minutes, followed by addition of 0.2 mM of the phosphotyrosine peptide and incubation at 22° C. for […]. 100 μl of Malachite Green solution was added and incubated for 5 minutes, and the absorbance at 660 nm was measured after 5 minutes.

intracellular Flag-PRL-1 = molecular target: T3, intracellular Flag-PRL-1 (Homo sapiens, UniProt Q93096); assay: PTPase activity of anti-Flag immunocomplexes from NIH3T3 transfectants; assay type: cell-based; conditions: treated 5 min
T3 construct: expressed in transfected cells; host or cells: NIH3T3
Procedure: (§1) An expression construct of Flag-tagged PRL-1 or control vector was transfected into NIH3T3 cells which were then treated without or with sodium stibogluconate and used for immunoprecipitation assays with a monoclonal anti-Flag antibody. The immunocomplexes were analyzed by SDS-PAGE/Western blotting and PTPase assays. A Flag-tagged protein with a molecular weight approximately 22 kDa as expected for Flag-PRL-1 was detected in the immunocomplexes from untreated or sodium stibogluconate -treated Flag-PRL-1 transfectants but not in those from the control cells (FIG. 6A).
(§2) Glucatime inactivates intracellular PRL phosphatases. NIH3T3 stable transfectants of Flag-tagged PRL-1 (A), PRL-2 (B) and PRL-3 (C) were untreated or treated with glucatime for 5 minutes and then washed to remove cell free drug. The Flag-tagged PRLs were immunoprecipitated from the cells using a monoclonal anti-Flag antibody. The amounts of Flag-tagged PRLs in the immunocomplexes were quantified by SDS-PAGE/Western blotting with the anti-Flag antibody (the top panel). Activities of the immunocomplexes in dephosphorylating a synthetic phosphotyrosine peptide were determined by in vitro PTPase assays (the low panel).

intracellular Flag-PRL-3 = molecular target: T4, intracellular Flag-PRL-3 (Homo sapiens, UniProt O75365); assay: as above; assay type: cell-based; conditions: treated 5 min
T4 construct: expressed in transfected cells; host or cells: NIH3T3
Procedure: as §1, §2

[2] = tested on: Stat1 tyrosine phosphorylation; assay: IFNα-induced Stat1 tyrosine phosphorylation in cancer cell lines; assay type: cell-based, human
Procedure: Induction of Stat1 tyrosine phosphorylation by IFNα and/or sodium stibogluconate. For induction of Stat1 tyrosine phosphorylation by IFNα in the absence or presence of sodium stibogluconate, cells grown in 10% FCS RPMI 1640 medium at 37° C. were stimulated with IFNα (50 u/ml) for various time points and treated with or without sodium stibogluconate for 5 minutes prior to termination by lysing the cells in cold lysis buffer (1% NP-40; 50 mM Tris, pH 7.4; 100 mM NaCl; 1 mM EDTA, 10% glycerol, 10 mM sodium molybdic acid and 4 mM AEBSF).
Cell lysate preparation, SDS-PAGE, and Western blotting. Cell lysates were prepared by lysing cells in cold lysis buffer for 30 min and cleared by centrifuging at 14,000 rpm at 4° C. for 15 min. For SDS-PAGE, cell lysates were mixed with equal volume of 2×SDS-PAGE sample buffer, heated at 90° C. for 5 min and separated in 10% SDS-PAGE gels. Cellular proteins in SDS-PAGE gels were transferred to nitrocellulose membrane (Schleicher & Schuell), blocked in 5% milk, probed with antibodies and detected by using an enhanced chemiluminescence kit (ECL, Amersham).

[3] = Tolerability in nude mice (viability, body weight, appearance); assay type: in vivo
Procedure: The effective dosage of sodium stibogluconate against WM9 and DU145 xenografts is well tolerated in nude mice. […] Thus dosage is much higher than the standard dose for Leishmaniasis (20 mg Sb/kg, daily). As an initial step to assess the toxicity of such a high dosage of sodium stibogluconate in nude mice, its effect on the viability and body weights of WM9 xenografts nude mice during the 25 day period of the study was determined.

[4] = tested on: DR cells (Burkitt's Lymphoma); assay: Growth inhibition of human tumor cell lines (MTT); assay type: cell-based
Procedure: (§3) FIG. 8 illustrates growth inhibition of human cell lines of hematopoietic malignancies by sodium stibogluconate and/or IFNα: A and B. Growth of DS and DR cells cultured in the absence or presence of various amounts of sodium stibogluconate and/or IFNα (1,000 u/ml) for 3 days was measured by MTT assays; C. Percentage of growth inhibition of DR cells calculated from data in B; D. Percentage of growth inhibition of DR cells by IFNα (1,000 u/ml) and various amounts of sodium stibogluconate in day 6 cultures measured by MTT assays; E. Percentage of growth inhibition of U266 cells by IFNα (1,000 u/ml) and various amounts of sodium stibogluconate in day 6 cultures as measured by MTT assays.

[5] = tested on: U266 cells (Multiple myeloma); assay: Growth inhibition of human tumor cell lines (MTT); assay type: cell-based; conditions: SS 12.5 μg/ml, IFNα 1,000 u/ml, alone or combined
Procedure: as §3

[6] = tested on: C42 cells (Prostate cancer); assay: Growth inhibition of human tumor cell lines; assay type: cell-based; conditions: SS 12.5 μg/ml, IFNα 1,000 u/ml, alone or combined
prostate cancer = conditions: cited from earlier work

T4 sequence (O75365 whole entry): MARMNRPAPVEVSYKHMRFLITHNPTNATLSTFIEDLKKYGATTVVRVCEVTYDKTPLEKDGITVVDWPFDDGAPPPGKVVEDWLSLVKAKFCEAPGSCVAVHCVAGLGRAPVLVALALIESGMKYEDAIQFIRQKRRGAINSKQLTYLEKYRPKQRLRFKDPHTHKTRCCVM
T2 sequence (P28562 whole entry, species assumed, the tested form may be a part): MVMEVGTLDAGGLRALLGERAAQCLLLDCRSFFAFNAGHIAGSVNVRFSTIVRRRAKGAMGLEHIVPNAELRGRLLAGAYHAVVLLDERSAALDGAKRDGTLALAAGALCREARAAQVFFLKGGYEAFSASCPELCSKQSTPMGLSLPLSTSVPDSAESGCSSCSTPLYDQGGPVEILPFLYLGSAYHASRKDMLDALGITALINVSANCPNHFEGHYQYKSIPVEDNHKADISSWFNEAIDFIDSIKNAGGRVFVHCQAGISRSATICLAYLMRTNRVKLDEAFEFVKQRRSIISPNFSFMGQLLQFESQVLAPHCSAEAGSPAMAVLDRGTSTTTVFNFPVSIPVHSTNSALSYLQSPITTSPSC
T3 sequence (Q93096 whole entry): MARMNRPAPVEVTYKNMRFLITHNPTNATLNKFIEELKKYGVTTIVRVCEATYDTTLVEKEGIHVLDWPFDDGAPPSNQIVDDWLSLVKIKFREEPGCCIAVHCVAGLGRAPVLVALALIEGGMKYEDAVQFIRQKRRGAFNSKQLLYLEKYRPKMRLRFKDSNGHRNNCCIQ
T1 sequence (P29351 whole entry, the tested form may be a part): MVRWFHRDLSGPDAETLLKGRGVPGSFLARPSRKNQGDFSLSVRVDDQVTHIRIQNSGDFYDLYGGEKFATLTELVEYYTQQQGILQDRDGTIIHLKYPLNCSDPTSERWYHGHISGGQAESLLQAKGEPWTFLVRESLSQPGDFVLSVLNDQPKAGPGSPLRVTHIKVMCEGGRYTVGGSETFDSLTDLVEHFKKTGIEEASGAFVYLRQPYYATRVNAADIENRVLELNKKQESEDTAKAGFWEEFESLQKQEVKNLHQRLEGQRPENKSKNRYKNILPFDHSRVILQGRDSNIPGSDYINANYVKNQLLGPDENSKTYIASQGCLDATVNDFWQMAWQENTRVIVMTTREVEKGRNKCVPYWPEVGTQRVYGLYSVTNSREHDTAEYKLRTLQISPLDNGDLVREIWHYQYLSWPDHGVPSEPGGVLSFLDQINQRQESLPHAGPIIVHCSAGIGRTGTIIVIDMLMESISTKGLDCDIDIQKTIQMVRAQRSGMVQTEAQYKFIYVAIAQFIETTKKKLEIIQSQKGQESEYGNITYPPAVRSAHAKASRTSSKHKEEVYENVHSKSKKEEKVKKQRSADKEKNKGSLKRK

| Compound | effect on recombinant SHP-1 (GST/SHP-1 fusion protein) | inhibitory activity against MKP1 [1] | PTPase activity of Flag-PRL-1 immunocomplexes from treated transfectants (intracellular Flag-PRL-1) | PTPase activity of Flag-PRL-3 immunocomplexes from treated transfectants (intracellular Flag-PRL-3) | IFNα-induced Stat1 tyrosine phosphorylation relative to control ([2]; DR cells, 10 μg/ml, 30 min post-stimulation) | Stat1 tyrosine phosphorylation by the drug itself ([2]; DR cells, absence of IFNα) | IFNα-induced Stat1 tyrosine phosphorylation ([2]; DU145 cells, 5 hours post-stimulation) | IFNα-induced Stat1 tyrosine phosphorylation ([2]; WM9 cells, 5 hours post-stimulation) | IFNα-induced Stat1 tyrosine phosphorylation ([2]; WM35 cells) | IFNα-induced Stat1 tyrosine phosphorylation ([2]; WiT49-N1 cells) | tolerability ([3]; 12 mg Sb daily (440 mg Sb/kg daily), s.c., 25 day study) | daily dose that mice could tolerate ([3]; pilot study, approximately 700-800 mg Sb/kg) [mg Sb] | % of growth inhibition by day 6 (±s.d.) ([4]; DR, SS 12.5 μg/ml, IFNα 1,000 u/ml, alone or combined) [%] | growth inhibition of DR cells, day 3 ([4]; IFNα 1,000 u/ml alone or with various amounts of sodium stibogluconate, day 3) [%] | % of growth inhibition by day 6 (±s.d.) [5] | % of growth inhibition by day 6 (±s.d.) [6] | patients in whom the cytokine is effective (prostate cancer) [%] |
| --- | --- | --- | --- | --- | --- | --- | --- | --- | --- | --- | --- | --- | --- | --- | --- | --- | --- |
| O.O.O.O.O.O.O.O.O.O=C([O-])[C@@H]1[O][Sb]2([O-])([O][Sb]34([OH])[O][C@H]([C@H](O)CO)[C@H]([O]3)[C@H](C(=O)[O-])[O]4)[O][C@H]([C@H](O)CO)[C@@H]1[O]2.[Na+].[Na+].[Na+] [sodium stibogluconate] | inactivated | no obvious inhibitory activity | little PTPase activities | lack of PTPase activity | approximately two | failed to induced | Enhanced | Enhanced | failed to enhance | failed to enhance | well tolerated with no serious side effect | 20 | – | – | – | – | – |
| IFNα | – | – | – | – | – | – | – | – | – | – | – | – | 39 | 19 | 78 (10) % | +19 (30) % | 5 |
